Data set [1] concerns the target Cyclin-dependent kinase 2 (Homo sapiens, UniProt P24941). Nature of the data set: Inhibition of CDK2 (unknown origin) assessed as phosphorylation of ULight 4EBP1 peptide substrate measured after 2 hrs by FRET-based LANCE Ultra KinSelect assay.
In data set [2] the target is Cyclin-dependent kinase 7 (Homo sapiens, UniProt P50613). Nature of the data set: Inhibition of CDK7 (unknown origin).
Data set [3] concerns the target Tyrosine-protein kinase JAK2 (Homo sapiens) (UniProt O60674). Nature of the data set: Inhibition of human partial length wild type JAK2 (A829/G1132) expressed in mammalian system at 1 uM by KINOMEscan analysis relative to control.
Data set [4] deals with Mitogen-activated protein kinase kinase kinase 5 (Homo sapiens) (UniProt Q99683). Nature of the data set: Inhibition of human partial length wild type ASK1 expressed in bacterial system at 1 uM by KINOMEscan analysis relative to control.
Sequence of Mitogen-activated protein kinase kinase kinase 5 (Homo sapiens) (Q99683 whole entry): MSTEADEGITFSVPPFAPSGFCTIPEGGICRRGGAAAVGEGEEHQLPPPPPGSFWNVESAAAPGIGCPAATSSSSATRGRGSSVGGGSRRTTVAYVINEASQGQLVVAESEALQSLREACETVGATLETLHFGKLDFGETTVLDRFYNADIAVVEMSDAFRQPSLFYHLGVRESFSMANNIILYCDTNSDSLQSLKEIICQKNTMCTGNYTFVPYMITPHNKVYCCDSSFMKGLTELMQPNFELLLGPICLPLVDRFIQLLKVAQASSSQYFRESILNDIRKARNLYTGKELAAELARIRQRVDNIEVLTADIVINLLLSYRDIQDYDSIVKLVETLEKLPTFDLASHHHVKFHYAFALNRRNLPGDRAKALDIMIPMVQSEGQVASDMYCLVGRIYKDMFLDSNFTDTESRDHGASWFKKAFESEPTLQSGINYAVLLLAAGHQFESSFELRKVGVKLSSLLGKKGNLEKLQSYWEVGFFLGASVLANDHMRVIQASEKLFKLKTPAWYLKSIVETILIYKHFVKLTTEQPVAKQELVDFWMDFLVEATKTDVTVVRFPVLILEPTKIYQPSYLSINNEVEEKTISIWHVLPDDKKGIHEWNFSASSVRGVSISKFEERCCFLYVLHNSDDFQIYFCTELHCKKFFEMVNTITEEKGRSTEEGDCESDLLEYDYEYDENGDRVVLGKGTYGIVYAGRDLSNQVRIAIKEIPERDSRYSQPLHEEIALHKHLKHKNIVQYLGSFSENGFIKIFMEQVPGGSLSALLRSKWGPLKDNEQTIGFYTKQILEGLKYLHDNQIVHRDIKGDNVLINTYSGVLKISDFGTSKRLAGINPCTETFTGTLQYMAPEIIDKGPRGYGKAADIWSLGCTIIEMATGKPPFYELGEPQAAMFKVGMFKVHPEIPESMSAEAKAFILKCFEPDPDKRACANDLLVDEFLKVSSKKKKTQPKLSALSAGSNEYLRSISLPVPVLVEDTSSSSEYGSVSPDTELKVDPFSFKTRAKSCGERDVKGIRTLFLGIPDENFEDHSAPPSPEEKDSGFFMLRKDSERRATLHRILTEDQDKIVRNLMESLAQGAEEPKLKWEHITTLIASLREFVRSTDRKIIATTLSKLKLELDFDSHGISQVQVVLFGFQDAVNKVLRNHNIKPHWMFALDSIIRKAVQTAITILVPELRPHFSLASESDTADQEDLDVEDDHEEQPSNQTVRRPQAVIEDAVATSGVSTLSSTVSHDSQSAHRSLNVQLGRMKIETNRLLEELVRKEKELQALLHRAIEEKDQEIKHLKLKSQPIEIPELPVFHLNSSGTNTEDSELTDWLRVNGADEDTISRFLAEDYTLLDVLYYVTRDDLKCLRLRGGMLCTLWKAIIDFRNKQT
Data set [5] concerns the target Ephrin type-B receptor 4 (Homo sapiens) (UniProt P54760). Put plainly: Inhibition of human partial length wild type EphB4 (H585/G892) expressed in bacterial system at 1 uM by KINOMEscan analysis relative to control.
The target in data set [6] is MAP kinase-activated protein kinase 2 (Homo sapiens) (UniProt P49137). Nature of the data set: Inhibition of human partial length wild type MAPKAP-K2 expressed in bacterial system at 1 uM by KINOMEscan analysis relative to control.
Sequence of MAP kinase-activated protein kinase 2 (Homo sapiens) (P49137 whole entry, looked up): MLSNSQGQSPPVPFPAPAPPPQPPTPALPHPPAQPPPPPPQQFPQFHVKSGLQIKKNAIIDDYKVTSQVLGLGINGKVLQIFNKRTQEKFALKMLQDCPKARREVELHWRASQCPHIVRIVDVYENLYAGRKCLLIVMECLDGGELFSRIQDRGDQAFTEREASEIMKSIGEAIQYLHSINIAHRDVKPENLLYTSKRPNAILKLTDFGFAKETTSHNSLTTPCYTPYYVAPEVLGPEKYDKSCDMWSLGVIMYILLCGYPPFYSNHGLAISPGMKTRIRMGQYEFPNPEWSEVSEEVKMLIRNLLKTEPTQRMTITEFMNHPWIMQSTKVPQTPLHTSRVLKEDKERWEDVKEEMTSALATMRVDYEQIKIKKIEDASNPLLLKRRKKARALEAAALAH
Data set [7] has as its target Dual specificity mitogen-activated protein kinase kinase 1 (Homo sapiens) (UniProt Q02750). Put plainly: Inhibition of human full length wild type MEK1 expressed in mammalian system at 1 uM by KINOMEscan analysis relative to control.
The target of data set [8] is Mitogen-activated protein kinase kinase kinase 9 (Homo sapiens) (UniProt P80192). Put plainly: Inhibition of human partial length wild type MLK1 expressed in bacterial system at 1 uM by KINOMEscan analysis relative to control.
The target of data set [9] is Serine/threonine-protein kinase mTOR (Homo sapiens) (UniProt P42345). Put plainly: Inhibition of human partial length wild type mTOR (L1382/W2549) expressed in mammalian system at 1 uM by KINOMEscan analysis relative to control.
The target of data set [10] is Mitogen-activated protein kinase 14 (Homo sapiens) (UniProt Q16539). Nature of the data set: Inhibition of full length human recombinant SAPK2a at 1 uM by radiometric assay.
Sequence of Mitogen-activated protein kinase 14 (Homo sapiens) (Q16539 whole entry): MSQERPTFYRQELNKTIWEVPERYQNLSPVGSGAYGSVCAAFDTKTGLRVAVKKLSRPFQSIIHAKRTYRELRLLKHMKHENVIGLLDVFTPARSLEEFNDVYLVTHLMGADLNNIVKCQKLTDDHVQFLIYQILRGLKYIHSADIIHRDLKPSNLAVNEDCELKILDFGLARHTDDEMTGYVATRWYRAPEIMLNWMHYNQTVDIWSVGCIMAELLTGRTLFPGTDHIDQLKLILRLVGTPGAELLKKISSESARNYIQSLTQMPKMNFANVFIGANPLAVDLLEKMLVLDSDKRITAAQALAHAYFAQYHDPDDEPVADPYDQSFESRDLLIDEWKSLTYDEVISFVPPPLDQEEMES
For data set [11], the target named is PI3-kinase p110-alpha/p85-alpha (Homo sapiens) (UniProt P27986+P42336). Put plainly: Inhibition of PI3 kinase p110alpha/p85alpha (unknown origin) at 1 uM relative to control. Format: protein-complex assay.
Data set [12] is described as follows: Observed clearance in ICR mouse at 5 mg/kg, iv single dose measured upto 24 hrs. The following applies: in vivo. The class given is ADME, organism-based.
The nature of data set [13]: Plasma protein binding in mouse measured after 4 hrs by LC-MS/MS analysis. Format: ADME, cell-free. The conditions noted are these: read-out: PPB.
The nature of data set [14]: Half life in ICR mouse at 5 mg/kg, sc single dose measured upto 24 hrs. The class given is ADME, organism-based. The following applies: in vivo.
Data set [15] in a line: Observed MRT (infinitive) in ICR mouse at 5 mg/kg, sc single dose measured upto 24 hrs. Format: ADME, organism-based. The following applies: in vivo.

A value given as a limit tells only on which side of the number the result lay.

Sequence of Tyrosine-protein kinase JAK2 (Homo sapiens) (O60674 whole entry): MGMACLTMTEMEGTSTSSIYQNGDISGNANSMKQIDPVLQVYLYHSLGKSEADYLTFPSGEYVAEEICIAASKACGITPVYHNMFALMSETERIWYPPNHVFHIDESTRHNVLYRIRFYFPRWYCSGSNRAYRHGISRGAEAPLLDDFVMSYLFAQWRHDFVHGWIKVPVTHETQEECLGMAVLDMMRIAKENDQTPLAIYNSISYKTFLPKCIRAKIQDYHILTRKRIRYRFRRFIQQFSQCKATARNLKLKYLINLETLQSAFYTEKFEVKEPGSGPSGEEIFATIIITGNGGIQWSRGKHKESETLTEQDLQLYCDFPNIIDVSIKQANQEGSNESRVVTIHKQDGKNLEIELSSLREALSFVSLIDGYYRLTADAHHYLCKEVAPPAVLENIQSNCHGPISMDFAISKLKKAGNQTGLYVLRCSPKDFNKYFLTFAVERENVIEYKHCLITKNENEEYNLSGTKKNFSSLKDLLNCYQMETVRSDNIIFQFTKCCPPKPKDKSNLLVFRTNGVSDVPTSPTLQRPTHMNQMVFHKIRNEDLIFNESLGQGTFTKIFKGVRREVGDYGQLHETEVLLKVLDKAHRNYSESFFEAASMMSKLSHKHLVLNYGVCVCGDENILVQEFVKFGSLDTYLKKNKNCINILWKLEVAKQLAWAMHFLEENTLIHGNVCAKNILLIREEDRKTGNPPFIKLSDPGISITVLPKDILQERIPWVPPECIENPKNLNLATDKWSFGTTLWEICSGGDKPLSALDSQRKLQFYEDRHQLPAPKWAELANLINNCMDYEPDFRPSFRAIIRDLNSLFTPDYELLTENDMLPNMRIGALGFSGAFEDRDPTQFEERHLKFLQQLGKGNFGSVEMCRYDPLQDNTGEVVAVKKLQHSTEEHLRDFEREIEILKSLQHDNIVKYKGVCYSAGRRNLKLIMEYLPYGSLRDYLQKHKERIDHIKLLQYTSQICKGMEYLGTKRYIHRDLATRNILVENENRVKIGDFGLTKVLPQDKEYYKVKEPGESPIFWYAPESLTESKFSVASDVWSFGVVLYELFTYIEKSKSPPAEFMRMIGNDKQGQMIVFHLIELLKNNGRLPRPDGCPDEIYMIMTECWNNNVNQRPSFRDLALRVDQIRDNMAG
Sequence of Dual specificity mitogen-activated protein kinase kinase 1 (Homo sapiens) (Q02750 whole entry): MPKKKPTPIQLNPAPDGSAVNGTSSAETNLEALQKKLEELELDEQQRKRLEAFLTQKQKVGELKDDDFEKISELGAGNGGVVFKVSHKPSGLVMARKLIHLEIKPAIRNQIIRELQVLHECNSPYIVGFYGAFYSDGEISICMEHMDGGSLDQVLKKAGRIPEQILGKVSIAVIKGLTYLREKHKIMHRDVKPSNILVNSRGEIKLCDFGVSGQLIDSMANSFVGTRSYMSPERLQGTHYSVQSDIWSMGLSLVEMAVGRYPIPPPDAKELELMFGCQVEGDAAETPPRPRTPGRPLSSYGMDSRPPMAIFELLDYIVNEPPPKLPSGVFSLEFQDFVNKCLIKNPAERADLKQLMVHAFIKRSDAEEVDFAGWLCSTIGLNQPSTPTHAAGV
Sequence of Cyclin-dependent kinase 7 (P50613 whole entry): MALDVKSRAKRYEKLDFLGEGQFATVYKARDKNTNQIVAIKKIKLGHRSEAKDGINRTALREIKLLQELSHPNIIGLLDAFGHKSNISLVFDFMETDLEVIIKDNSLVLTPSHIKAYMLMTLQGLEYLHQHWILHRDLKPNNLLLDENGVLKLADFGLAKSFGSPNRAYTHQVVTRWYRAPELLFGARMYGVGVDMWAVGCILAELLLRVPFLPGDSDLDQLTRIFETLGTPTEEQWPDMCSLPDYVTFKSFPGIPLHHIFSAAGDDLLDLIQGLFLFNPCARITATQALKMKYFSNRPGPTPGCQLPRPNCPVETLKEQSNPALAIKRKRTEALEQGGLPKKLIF
Sequence of Ephrin type-B receptor 4 (Homo sapiens) (P54760 whole entry): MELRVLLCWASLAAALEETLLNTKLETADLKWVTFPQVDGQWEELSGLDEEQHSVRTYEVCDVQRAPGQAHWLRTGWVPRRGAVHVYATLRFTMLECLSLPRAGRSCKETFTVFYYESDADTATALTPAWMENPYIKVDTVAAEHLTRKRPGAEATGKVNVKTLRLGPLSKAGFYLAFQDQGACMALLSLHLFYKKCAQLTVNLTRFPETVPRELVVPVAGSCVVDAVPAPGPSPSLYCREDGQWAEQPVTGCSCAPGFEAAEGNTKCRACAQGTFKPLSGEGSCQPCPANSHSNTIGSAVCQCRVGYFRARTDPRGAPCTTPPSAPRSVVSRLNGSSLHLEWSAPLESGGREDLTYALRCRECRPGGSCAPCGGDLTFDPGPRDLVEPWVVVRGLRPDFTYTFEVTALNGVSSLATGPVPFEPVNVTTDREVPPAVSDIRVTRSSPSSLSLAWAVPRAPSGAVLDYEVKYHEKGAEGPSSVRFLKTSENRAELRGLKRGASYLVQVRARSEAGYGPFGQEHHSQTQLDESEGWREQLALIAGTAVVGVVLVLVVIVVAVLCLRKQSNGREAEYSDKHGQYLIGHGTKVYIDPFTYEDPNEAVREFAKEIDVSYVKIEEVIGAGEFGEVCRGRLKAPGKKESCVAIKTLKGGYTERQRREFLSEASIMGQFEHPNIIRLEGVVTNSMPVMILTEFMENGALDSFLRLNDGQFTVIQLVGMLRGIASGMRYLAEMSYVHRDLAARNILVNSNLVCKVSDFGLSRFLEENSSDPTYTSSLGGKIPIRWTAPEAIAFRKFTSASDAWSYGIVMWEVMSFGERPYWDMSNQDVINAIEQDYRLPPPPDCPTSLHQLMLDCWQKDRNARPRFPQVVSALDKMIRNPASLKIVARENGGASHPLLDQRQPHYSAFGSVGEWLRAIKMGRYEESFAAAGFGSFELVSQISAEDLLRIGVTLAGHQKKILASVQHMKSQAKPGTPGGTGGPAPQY

Turning to `C=CC(=O)Nc1ccc(C(=O)Nc2n[nH]c3ccc(-c4cncc(NC[C@@H](O)c5ccccc5)c4)cc23)cc1`, the IC50 in data set [1] turned out to be 823 nM; in [2] it was 4 nM. Besides, the inhibition is 62% in data set [3]; less than 50% in data set [4]; less than 50% in [5]; less than 50% in data set [6]; less than 50% in [7]; less than 50% in [8]. For the same molecule, the inhibition in data set [9], in data set [10] and in [11] was less than 50% throughout. In addition, in data set [12], the clearance was found to be 3 mL/min/kg. Moreover, in data set [13], the fraction unbound at 4 h is less than 0.01. The molecule also showed a half-life in data set [14] of 3 h. The same molecule returned an MRT inf in data set [15] of 5 h.

For the origin of these results see ChEMBL document CHEMBL5236590, “Discovery of Novel N-(5-(Pyridin-3-yl)-1H-indazol-3-yl)benzamide Derivatives as Potent Cyclin-Dependent Kinase 7 Inhibitors for the Treatment of Autosomal Dominant Polycystic Kidney Disease” (J Med Chem, 2022).
